The structures appear in SMILES notation.

One assay concerns the target T1, NAC peptide (Homo sapiens, UniProt P37840).
T1 construct: NAC is a 35 amino acid long peptide with highly hydrophobic stretches
The assay can be described thus: Binding to NAC peptide by electrospray mass spectrometry. Particulars: 5:1 ratio (20 μM NAC: 100 μM test compound or 40 μM NAC: 200 μM test compound), 6.6% EtOH, pH 7.4; bound complex peak area / unbound NAC peak area. As to the method:
The ability of the compounds of the present invention to bind to NAC peptide in aqueous solution was evaluated. The binding ability correlates to the intensities of the peptide-compound complex peaks observed by the Electrospray Mass Spectrum. Millipore distilled deionized water was used to prepare all aqueous solutions. For pH determination a Beckman Φ36 pH meter fitted with a Corning Semi-Micro Combination pH Electrode was employed.
The optimal cone voltage was determined to be 20V.
Mass spectrometry—Mass spectrometric analysis was performed using a Waters ZQ 4000 mass spectrometer equipped with a Waters 2795 sample manager. MassLynx 4.0 (earlier by MassLynx 3.5) was used for data processing and analysis. Test compounds were mixed with disaggregated peptides in aqueous media (6.6% EtOH) at a 5:1 ratio (20 μM NAC: 100 μM of test compound or 40 μM NAC:200 μM of test compound). The pH of the mixture was adjusted to 7.4 (±0.2) using 0.1% NaOH (3-5 μL). Periodically, NAC peptide solution at 20 μM or 40 μM was also prepared in the same fashion and run as control. The spectra were obtained by introducing the solutions to the electrospray source by direct infusion using a syringe pump at a flow rate of 25 μl/min, and scanning from 100 to 2100 Da in the positive mode. The scan time was 0.9 sec per scan with an inter-scan delay of 0.1 sec and the run time was 5 min for each sample. All the mass spectra were sum of 300 scans. The desolvation and source temperature was 70° C. and the cone and capillary voltage were maintained at 20 V and 3.2 kV respectively.
The total area under the peaks for the bound NAC-compound complex divided by total area under the peaks for unbound NAC was determined for each compound tested.

Another assay concerns the target T2, Aβ1-40 (Homo sapiens, UniProt P05067).
T2 construct: most is normally secreted as a 40 (“Aβ1-40”) or 42 (“Aβ1-42”) amino acid peptide
Briefly: MS (electrospray mass spectrometry) binding assay for Aβ40. To be noted: Table 3C; 20 μM Aβ peptide, 100 μM compound. An excerpt:
(§1) The ability of a therapeutic compound of the invention to inhibit an interaction between an amyloidogenic protein and a glycoprotein or proteoglycan constituent of a basement membrane can be assessed by an in vitro binding assay, such as that described in U.S. Pat. No. 5,164,295, the contents of which are hereby incorporated by reference. Alternatively, the ability of a compound to bind to an amyloidogenic protein or to inhibit the binding of a basement membrane constituent (e.g., HSPG) to an amyloidogenic protein (e.g., Aβ) can be measured using a mass spectrometry assay where soluble protein, e.g., Aβ, IAPP, β2M is incubated with the compound. A compound which binds to, e.g., Aβ, will induce a change in the mass spectrum of the protein. Exemplary protocols for a mass spectrometry assay employing Aβ and IAPP can be found in the Examples, the results of which are provided in Table 3. The protocol can readily be modified to adjust the sensitivity of the data, e.g., by adjusting the amount of protein and/or compound employed. Thus, e.g., binding might be detected for test compounds noted as not having detectable binding employing less sensitive test protocols.
(§2) The test compounds were synthesized and screened by mass spectrometry (“MS”) assays, except for selected compounds which were purchased from a commercial source. The MS assay gives data on the ability of compounds to bind to proteins, in this example, to β-amyloid and IAPP.
(§3) The pH value of each sample was adjusted to 7.4 (±0.2) by addition of 0.1% aqueous sodium hydroxide. The solutions were then analyzed by electrospray ionization mass spectrometry using a Waters ZQ 4000 mass spectrometer. Samples were introduced by direct infusion at a flow-rate of 25 μL/min within 2 hr. after sample preparation. The source temperature was kept at 70° C. and the cone voltage was 20 V for all the analysis. Data were processed using Masslynx 3.5 software. The MS assay gives data on the ability of compounds to bind to soluble Aβ, whereas the ThT, EM and CD assays give data on inhibition of fibrillogenesis. In Table 3, a blank box means that a value was not determined for that compound in that assay.

A further assay has as its target T3, IAPP (Homo sapiens, UniProt P10997).
T3 construct: which is a 37 amino acid peptide, derived from a larger precursor peptide, called pro-IAPP
T3 sequence (P10997 34-70 limits assumed): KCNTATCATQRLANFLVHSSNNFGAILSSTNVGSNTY
The assay can be described thus: MS (electrospray mass spectrometry) binding assay for IAPP. To be noted: Table 3C; 20 μM Aβ peptide, 100 μM compound (so in the source).
Description: as §1, §2
as §3, with “In the MS assay for Aβ40, samples were prepared as aqueous solutions (adding 20% ethanol if necessary to solubilize in water), 200 μM of a test compound and 20 μM of solubilized Aβ40, or 400 μM of a test compound and 40 μM of solubilized Aβ40. The pH” for “The pH”
The key below describes the codes used in Table 3A to quantify the binding based on the intensity of the absorption.

T2 sequence (P05067 672-711 limits assumed): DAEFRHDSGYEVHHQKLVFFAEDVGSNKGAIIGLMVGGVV

As to `NCCCOS(=O)(=O)[O-].[Na+]` [H2NCH2CH2CH2OSO3Na], at NAC peptide, the “NAC peptide Binding Strength” value was “++ (++ = Moderate; when the total binding is between 120% and 70%)”.

Regarding `O=S(=O)(O)CC(O)CNC1CCCCC1` (stereo not shown) [drawing 490], on NAC peptide, the “NAC peptide Binding Strength” value is “+++ (+++ = Strong; when the total binding is 120% and higher)”.

Turning to `CC(CCN(C)C)S(=O)(=O)[O-].[Na+]` (stereo not shown) [JO, 4-(dimethylamino)-2-butanesulfonic acid], on Aβ1-40, the “MS binding Aβ1-40” value is listed as “+ (20-39% binding=(+))”. For the same compound, the “MS binding IAPP” value on IAPP is on record as “++ (40-74% binding=(++))”.

For the compound `O=S(=O)(O)CCCNC1C2CC3CC(C2)CC1C3` (stereo not shown) [drawing 488], the “NAC peptide Binding Strength” value at NAC peptide is “++ (++ = Moderate; when the total binding is between 120% and 70%)”.

As to `CC(CCNC1CC2CCC1C2)S(=O)(=O)O` (stereo not shown) [JJ, 4-(bicyclo[2.2.1]hept-2-ylamino)-2-butanesulfonic acid], on Aβ1-40, the “MS binding Aβ1-40” value was “++ (40-74% binding=(++))”. For the same compound, the “MS binding IAPP” value on IAPP is listed as “+++ (75-100% binding=(+++))”.

`NCCS(=O)(=O)O` [H2NCH2CH2SO3H]: at NAC peptide, the “NAC peptide Binding Strength” value was “+ (+ = Weak; when the total binding is between 70% and 30%)”.

Take `O=S(=O)([O-])CCCCS(=O)(=O)[O-].[Na+].[Na+]` [NaO3SCH2(CH2)2CH2SO3Na]: the “NAC peptide Binding Strength” value on NAC peptide was “− (− = None; when the total binding is between 30% and 0%)”.

As to `O=S(=O)([O-])CCC[N+]12CCC(CC1)CC2` [JM], on Aβ1-40, the “MS binding Aβ1-40” value was “− (<20%=(−))”. In addition, the “MS binding IAPP” value at IAPP is “+ (20-39% binding=(+))”.

With `C[C@H](NCCCS(=O)(=O)O)c1ccccc1` [JA], the “MS binding Aβ1-40” value at Aβ1-40 is reported as “+ (20-39% binding=(+))”. The “MS binding IAPP” value at IAPP was “++ (40-74% binding=(++))”.

For `C[C@@H]([C@H](O)c1ccccc1)N(C)CCCS(=O)(=O)O` [JE], the “MS binding Aβ1-40” value at Aβ1-40 was “− (<20%=(−))”. Besides, the “MS binding IAPP” value on IAPP is listed as “++ (40-74% binding=(++))”.

For `O=S(=O)([O-])OCCCOS(=O)(=O)[O-].[Na+].[Na+]` [NaO3SOCH2CH2CH2OSO3Na], on NAC peptide, the “NAC peptide Binding Strength” value is “− (− = None; when the total binding is between 30% and 0%)”.

Turning to `NCCCCS(=O)(=O)O`, on NAC peptide, the “NAC peptide Binding Strength” value is “+ (+ = Weak; when the total binding is between 70% and 30%)”.

Turning to `CCOc1ccccc1CNCCCS(=O)(=O)O` [JD], the “MS binding Aβ1-40” value at Aβ1-40 is listed as “+ (20-39% binding=(+))”. Also, on IAPP, the “MS binding IAPP” value was “++ (40-74% binding=(++))”.

Regarding `CC(C)(C)NCCCS(=O)(=O)O` [drawing 487], the “NAC peptide Binding Strength” value on NAC peptide is “++ (++ = Moderate; when the total binding is between 120% and 70%)”.

With `CC(CCNC1CCCc2ccccc21)S(=O)(=O)O` (stereo not shown) [JF, 4-(1,2,3,4-tetrahydro-1-naphthylamino)-2-butanesulfonic acid], the “MS binding Aβ1-40” value at Aβ1-40 is “+ (20-39% binding=(+))”. The “MS binding IAPP” value on IAPP is listed as “++ (40-74% binding=(++))”.

For `NCCOS(=O)(=O)O` [NH2CH2CH2OSO3H], the “NAC peptide Binding Strength” value on NAC peptide was “− (− = None; when the total binding is between 30% and 0%)”.

Turning to `COc1ccc(OC)c(CNCCCS(=O)(=O)O)c1` [JB], the “MS binding Aβ1-40” value on Aβ1-40 is recorded as “+ (20-39% binding=(+))”. Further, the “MS binding IAPP” value on IAPP is listed as “+ (20-39% binding=(+))”.

The record behind these values is patent US8642801B2 (BHI Limited Partnership, priority 2003, dated 2014).
